{"source": "patent US9675591B2", "about": "“Methods for treating seizure disorders and pain” (THE REGENTS OF THE UNIVERSITY OF CALIFORNIA, priority 2013, dated 2017)", "key": {"Nav1.4": {"target": "Nav1.4 (Homo sapiens (Human), UniProt P35499)", "sequence (P35499 whole entry)": "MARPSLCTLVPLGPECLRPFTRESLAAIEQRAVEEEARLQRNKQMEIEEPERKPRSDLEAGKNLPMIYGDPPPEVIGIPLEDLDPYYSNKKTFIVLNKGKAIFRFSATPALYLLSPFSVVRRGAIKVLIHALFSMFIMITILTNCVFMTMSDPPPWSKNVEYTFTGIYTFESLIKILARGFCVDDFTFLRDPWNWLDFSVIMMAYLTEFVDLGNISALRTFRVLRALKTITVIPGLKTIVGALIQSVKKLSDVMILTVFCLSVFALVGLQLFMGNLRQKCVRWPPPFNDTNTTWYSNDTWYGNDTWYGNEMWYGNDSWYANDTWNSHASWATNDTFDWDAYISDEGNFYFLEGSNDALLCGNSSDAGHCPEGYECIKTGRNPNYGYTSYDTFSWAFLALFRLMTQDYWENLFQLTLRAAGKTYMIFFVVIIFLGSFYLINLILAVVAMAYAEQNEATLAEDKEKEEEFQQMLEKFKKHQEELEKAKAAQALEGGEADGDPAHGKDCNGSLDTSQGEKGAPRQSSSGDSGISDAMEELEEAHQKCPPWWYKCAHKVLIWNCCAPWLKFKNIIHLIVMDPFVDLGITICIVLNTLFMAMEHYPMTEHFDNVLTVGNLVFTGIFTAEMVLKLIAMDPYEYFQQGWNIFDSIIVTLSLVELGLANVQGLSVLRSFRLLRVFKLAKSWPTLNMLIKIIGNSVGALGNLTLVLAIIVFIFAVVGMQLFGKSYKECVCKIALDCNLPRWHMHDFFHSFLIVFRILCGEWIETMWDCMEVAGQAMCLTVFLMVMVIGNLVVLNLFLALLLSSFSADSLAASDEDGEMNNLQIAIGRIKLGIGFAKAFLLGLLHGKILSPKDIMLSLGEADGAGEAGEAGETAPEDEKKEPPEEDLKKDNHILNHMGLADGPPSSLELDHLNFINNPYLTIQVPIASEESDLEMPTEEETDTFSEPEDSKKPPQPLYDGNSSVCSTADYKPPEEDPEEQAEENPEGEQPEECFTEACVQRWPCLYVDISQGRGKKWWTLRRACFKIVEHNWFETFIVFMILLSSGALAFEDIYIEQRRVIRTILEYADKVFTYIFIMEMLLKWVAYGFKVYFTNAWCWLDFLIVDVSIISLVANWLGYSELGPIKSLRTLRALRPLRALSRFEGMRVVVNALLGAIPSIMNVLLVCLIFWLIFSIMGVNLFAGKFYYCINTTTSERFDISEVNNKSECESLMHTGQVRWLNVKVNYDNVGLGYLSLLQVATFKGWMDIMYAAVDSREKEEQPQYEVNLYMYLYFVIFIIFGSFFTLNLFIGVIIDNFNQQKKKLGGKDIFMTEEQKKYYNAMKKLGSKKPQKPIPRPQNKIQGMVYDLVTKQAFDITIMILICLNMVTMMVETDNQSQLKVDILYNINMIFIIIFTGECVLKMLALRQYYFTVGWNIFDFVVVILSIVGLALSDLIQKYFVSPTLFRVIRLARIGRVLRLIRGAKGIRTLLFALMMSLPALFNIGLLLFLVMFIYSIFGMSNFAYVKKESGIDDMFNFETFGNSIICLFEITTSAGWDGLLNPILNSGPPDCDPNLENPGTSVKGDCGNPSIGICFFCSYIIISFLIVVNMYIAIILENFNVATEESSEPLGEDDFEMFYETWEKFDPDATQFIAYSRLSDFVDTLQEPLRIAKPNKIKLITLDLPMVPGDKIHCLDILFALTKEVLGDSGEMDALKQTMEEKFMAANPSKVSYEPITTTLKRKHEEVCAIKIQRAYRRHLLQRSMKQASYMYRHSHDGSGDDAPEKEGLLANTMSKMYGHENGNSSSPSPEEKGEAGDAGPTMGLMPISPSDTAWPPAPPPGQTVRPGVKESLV", "assay": "Voltage-clamp, Nav1.4 in HEK-293 cells", "assay_type": "cell-based", "experimental": "All experiments were conducted at room temperature (22-24° C.) with an EPC-10 amplifier and Pulse software (HEKA, Lambrecht/Pfalz, Germany) in the whole-cell mode of the patch-clamp technique. Human embryonic kidney (HEK)-293 cell lines stably expressing hNav1.1, hNav1.5, hNav1.7 channels (generously provided by Dr. Christopher Lossin, University of California Davis), hNav1.4 (Frank Lehmann-Horn, University of Ulm), or hKv2.1 channels (James Trimmer, University of California Davis) were bathed in extracellular solution containing (in mM): 160 NaCl; 4.5 KCl; 1 MgCl2; 2 CaCl2; 10 HEPES [pH was adjusted to 7.4 using NaOH (310 mOsm)]. Pipettes were filled with intracellular solution containing (in mM): 145 KF; 2 MgCl2; 10 ethylene glycol tetraacetic acid; 10 HEPES (pH adjusted to 7.2 with KOH; 300 mOsm). Neuroblastoma N1E-115 cells (ATCC, Manassa, Va., USA) expressing Nav1.2 were patched with a CsF internal solution consisting of (in mM): 10 NaF; 110 CsF; 20 CsCl; 2 ethylene glycol tetraacetic acid; 10 HEPES (CsOH to pH 7.35; 300 mOsm). All pipette tip resistances were 2-4 MΩ. Series resistances of 3-10 MΩ were compensated 40-80%. All cells were voltage-clamped to a holding potential of −90 mV unless otherwise specified. The sampling frequency was 5 kHz. Na^+ currents were elicited by 30-ms pulse to 0 mV from −90 mV applied every 10 s. […]"}, "MES-induced seizures [1]": {"tested_on": "MES-induced seizures", "assay": "Maximal electroshock (MES) seizure test, mice (ASP, methylcellulose suspension)", "assay_type": "in vivo", "experimental": "SKA-19 was tested under the auspices of the National Institutes of Health's Anticonvulsant Screening Program (ASP). Experiments were performed in male albino CF (Carworth Farms) No. 1 mice or Sprague-Dawley rats according to the established protocols of the ASP (White et al., 2002). SKA-19 was suspended in 0.5% methylcellulose and administered in a volume that permits accuracy of dosage without excessively contributing to total body fluid (0.01 ml/g body weight for mice and 0.04 ml/10 g body weight for rats).\nAnimals received an electrical stimulus of 0.2 s duration (50 mA in mice and 150 mA in rat at 60 Hz) delivered via corneal electrodes primed with an electrolyte solution containing 0.5% tetracaine. Animals were restrained by hand and released immediately after stimulation to permit observation of the seizure throughout its entire course. In the initial screens to identify anticonvulsant activity mice were tested at 30 minutes and 4 hours following doses of 3, 10, 30, 100 and 300 mg/kg of SKA-19 and rats tested at time intervals between 0.25 and 4 hours following a standard oral dose of 30 mg/kg. In the subsequent, more quantitative tests at least four doses of SKA-19 (n=8 per dose) were tested at the previously determined time of peak effect (TPE). Abolition of hindlimb tonic extension indicates the test compound's ability to inhibit MES-induced seizure spread. Tonic extension is considered abolished if the hind limbs are not fully extended at 180° with the body."}, "MES-induced seizures [2]": {"tested_on": "MES-induced seizures", "assay": "MES seizure test, CF-1 mice, compounds given i.p. as solution", "assay_type": "in vivo", "experimental": "MES assays were performed at the Department of Neurology at the University of California with CF-1 mice. This study was approved by the University of California, Davis, Animal Use and Care Committee and conducted in accordance with the guidelines of Animal Use and Care of the National Institutes of Health and the University of California. For these assays, stock solutions of SKA-19 (5 mg/ml) were prepared in 5% CremophorEL (Sigma-Aldrich, St. Louis, Mo., USA) and 95% saline, diluted further with saline, and SKA-19 was administered i.p. in a volume of 10 ml/kg body weight. Animals were subjected to a 0.2-s, 60-Hz electrical stimulus through corneal electrodes (5 mm diameter stainless steel balls). The electroshock unit was adjusted to deliver a constant current of 50 mA. Immediately before stimulation, the corneal electrodes were wetted with saline to provide good electrical contact. Animals failing to show tonic hindlimb extension were scored as protected (Kokate et al., 1994).\nThe mouse maximal electroshock (MES) and 6 Hz seizure models were used. Motor toxicity was assessed using a modification of the horizontal screen test. ED50 values in the seizure models and TD50 values in the toxicity test were determined by nonlinear fitting of dose-response curves. […] Drugs solutions were injected intraperitoneally 10 min prior to administration of the electrical stimulus in a volume of 10 ml/kg body weight."}, "[3]": {"tested_on": "Metrazol seizure threshold", "assay": "Infusion of Metrazol (i.v. Met) seizure threshold test", "assay_type": "in vivo, mice", "experimental": "The i.v. Met test provides a measure of a test substance's ability to raise or lower seizure threshold. Two doses of the test compound are usually employed in this test, the MES ED50 and the TD50 determined following i.p. quantification testing in mice. SKA-19 was accordingly tested at 5 and 30 mg/kg. Randomly selected mice (n=30) were injected i.p. 2 minutes apart with either the vehicle or the two test drug doses. At the previously determined TPE, 0.5% heparinized Metrazol solution was infused at a constant rate of 0.34 ml/min into a lateral tail vein. The time in seconds from the start of the infusion to the appearance of the “first twitch” and the onset of sustained clonus is recorded. The times to each endpoint are converted to mg/kg of Metrazol for each mouse as follows: mg/kg Met=Infusion time (T)×Rate of infusion (ml/min)×mg Met/ml×1000 g/60 sec×Weight (W) of animal in g=T×0.34×5×1000=28.33×T=mg/kg of Metrazol 60×W W. The mean and S.E. for each of the 3 groups and the significance of the difference between the test groups and the control are calculated."}, "[4]": {"tested_on": "pentylenetetrazole-induced seizures", "assay": "Subcutaneous Metrazol seizure test (scMET)", "assay_type": "in vivo", "experimental": "A dose of subcutaneous pentylenetetrazole (Metrazole, MET) which induces convulsions in 97% of animals (CD97: 85 mg/kg mice or 56.4 mg/kg rats) was injected into a loose fold of skin at the neck. Animals were placed in isolation cages and observed for 30 min for the occurrence of clonic spasms persisting for at least 5 s."}, "[5]": {"conditions": "ASP anticonvulsant testing, suspension in 0.5% methylcellulose"}}, "data": [{"smiles": "Nc1nc2ccc(SC(F)(F)F)cc2s1", "note": "[SKA-19, 6-((trifluoromethyl)thio)benzo[d]thiazol-2-amine]", "values": [{"measurement": "block of Nav1.4", "setting": "Nav1.4", "result": "low micromolar range"}, {"measurement": "IC50", "setting": "Nav1.4; read-out: EC50 or IC50, Nav1.4", "result": "4.5 ± 2.7", "unit": "µM"}, {"measurement": "duration of activity", "setting": "MES-induced seizures [1]; [5]", "result": 4, "unit": "h"}, {"measurement": "time of peak activity / maximal effect", "setting": "MES-induced seizures [1]; [5]", "result": "1 to 2", "unit": "h"}, {"measurement": "ED50", "setting": "MES-induced seizures [1]; Mus musculus, ip, mice, i.p., methylcellulose suspension, time of peak effect (SKA-19: 2 h), read-out: ED50, seizure protection in the MES test", "result": 4.8, "unit": "mg/kg"}, {"measurement": "protection in the MES model, initial screen", "setting": "MES-induced seizures [1]; mice, i.p., 3 mg/kg", "result": "partial protection"}, {"measurement": "protection in the MES model, initial screen", "setting": "MES-induced seizures [1]; mice, i.p., 10, 30 and 100 mg/kg", "result": "fully protected"}, {"measurement": "protective index PI (TD50/ED50)", "setting": "MES-induced seizures [1]; mice, i.p., suspension", "result": 6.2}, {"measurement": "duration of full protection", "setting": "MES-induced seizures [2]; 10 mg/kg i.p. as solution", "result": 2.5, "unit": "h"}, {"measurement": "duration of significant seizure protection", "setting": "MES-induced seizures [2]; 5 and 6 mg/kg i.p. as solution", "result": "at least 90 min"}, {"measurement": "duration of protective activity", "setting": "MES-induced seizures [2]; MES test, 10 mg/kg i.p. as solution", "result": "up to 4 h"}, {"measurement": "ED50", "setting": "MES-induced seizures [2]; Mus musculus, ip, 10 min, i.p. as solution, 10 min time point, read-out: ED50, seizure protection in the MES test", "result": 4.93, "unit": "mg/kg"}, {"measurement": "onset of protection from seizures after application", "setting": "MES-induced seizures [2]; i.p. as solution", "result": "≤ 5", "unit": "min"}, {"measurement": "protective index PI (TD50/ED50)", "setting": "MES-induced seizures [2]; i.p. as solution, 10 min time point", "result": 3.2}, {"measurement": "time or metrazole dose to the first twitch or clonus", "setting": "[3]; 5 mg/kg i.p.", "result": "did not change"}, {"measurement": "proconvulsant action", "setting": "[3]; 5 and 30 mg/kg i.p.", "result": "not proconvulsant"}, {"measurement": "Metrazole dose to first clonus", "setting": "[3]; SKA-19 30 mg/kg i.p.", "result": "37.2 ± 1.25", "unit": "mg/kg"}, {"measurement": "Metrazole dose to first twitch", "setting": "[3]; SKA-19 30 mg/kg i.p.", "result": "31.6 ± 1.0", "unit": "mg/kg"}, {"measurement": "death in the scMET test", "setting": "[4]; 300 mg/kg", "result": "one animal treated with 300 mg/kg died"}, {"measurement": "protection in the scMET test", "setting": "[4]; 30 and 100 mg/kg", "result": "did not provide any protection"}, {"measurement": "activity in the scMET test", "setting": "[4]; mouse, in vivo", "result": "no significant activity"}]}]}
